The results in this text go back to patent publication US20190070174A1, “METHODS OF TREATING NEURODEGENERATIVE DISEASES” (priority 2016, published 2019).

One test has as its system human mutant ATXN3Q84. The format is cell-based. The settings on record: sagittal brain slices treated for 48 hours, cerebellum and brainstem. The procedure:
(§1) Nine slices per brain were used in each set of cultures. […] After 48 hours of incubation at 37° C./5% CO2, brain slices were assessed for ATXN3 levels by immunoblotting or immunofluorescence and for cell viability. For immunoblotting, each slice was macrodissected into separate cerebellum and brainstem that were immediately frozen at −80° C. in 80 μL and 150 μL of cold RIPA buffer containing protease inhibitors (Complete, Roche Diagnostics), respectively. Cell viability was assessed on treated slices by incubation in propidium iodide (PI) 1 μg/mL in culture medium for 1 hour. Slices were then mounted in PROLONG Gold Antifade Reagent (Invitrogen) and imaged using a FV500 Olympus confocal microscope.
(§2) Protein lysates from cell cultures, mouse brain slices or mouse brains were obtained by lysis in RIPA buffer containing protease inhibitors (Complete, Roche Diagnostics), followed by sonication and centrifugation. The supernatants (soluble protein fractions) were collected, total protein concentration was determined using the BCA method (Pierce) and then stored at −80° C. […] Pellets corresponding to insoluble protein fractions were resuspended in 100 μL of Laemmli buffer 2× and boiled for 10 min. Insoluble proteins were then quantified, and 100 μg were loaded in a filter trap assay apparatus and transferred to a nitrocellulose membrane (0.45 μm pore) that was incubated overnight with rabbit anti-MJD antibody (1:5000) at 4° C. Bound primary antibodies were visualized by incubation with a peroxidase-conjugated anti-mouse or anti-rabbit secondary antibody (1:10000; Jackson Immuno Research Laboratories) followed by treatment with the ECL-plus reagent (Western Lighting, PerkinElmer) and exposure to autoradiography films. Band intensity was quantified by densitometry using ImageJ.
To assess the efficacy of the five compounds to reduce ATXN3 levels in the mammalian brain, secondary screens in organotypic brain slice cultures derived from hemizygous YACMJD84.2 (Q84) transgenic mice were performed.

A further test has as its system mouse Atxn3. Nature of the test: Organotypic brain slice cultures from YACMJD84.2 (Q84) mice, immunoblotting. It is filed as cell-based. The settings on record: sagittal brain slices treated for 48 hours, cerebellum and brainstem. On the procedure: as §1
Protein lysates from cell cultures, mouse brain slices or mouse brains were obtained by lysis in RIPA buffer containing protease inhibitors (Complete, Roche Diagnostics), followed by sonication and centrifugation. The supernatants (soluble protein fractions) were collected, total protein concentration was determined using the BCA method (Pierce) and then stored at −80° C. […] Insoluble proteins were then quantified, and 100 μg were loaded in a filter trap assay apparatus and transferred to a nitrocellulose membrane (0.45 μm pore) that was incubated overnight with rabbit anti-MJD antibody (1:5000) at 4° C. […] Band intensity was quantified by densitometry using ImageJ. […]

A further test concerns endogenous mouse Atxn3. Nature of the test: Subchronic treatment of Q84 mice, immunoblot of soluble lysates. The settings on record: 15 mg/kg IP daily for 10 days. The format is in vivo. The procedure: (§3) YACMJD84.2 transgenic mice were housed in cages with a maximum number of five animals and maintained in a standard 12-hour light/dark cycle with food and water ad libitum. Genotyping was performed using DNA isolated from tail biopsy at the time of weaning, and genotypes of all studied mice were confirmed using DNA extracted from tails collected post-mortem. […] Five hours after the final injection, mice were anesthetized with ketamine/xylazine and perfused transcardially with phosphate buffered saline (PBS) (for RNA and protein studies), and brains were immediately placed on dry ice and stored at −80° C.
as §2
(§4) Five hours after the final injection on day 10, mice were sacrificed and brains collected for total protein and RNA extraction from different regions: brainstem, cerebellum, cervical spinal cord, and forebrain.
On the technique in general: Immunoblotting shows a protein as a band on a membrane.

The subject of another test is human ATXN3. The test is described as above. It is filed as in vivo. Particulars: 15 mg/kg IP daily for 10 days. The procedure: as §3, §2, §4
For another test, the system named is ATXN3Q26. As to the kind of experiment: Thioflavin T (ThT) fluorescence fibril formation assay. The format is biochemical, human. Particulars: ATXN3Q26 10 μM, compound 400 μM. On the procedure: (§5) pGEX-6P1 plasmids encoding GST-ATXN3Q26 and GST-ATXN3Q55 were transformed in Rosetta (DE3) BL21 cells. Colonies grown overnight in LB/ampicillin/chloramphenicol plates at 37° C. were resuspended in 150 mL of the same selection medium and incubated at 37° C., 230 rpm for 2 hours. Bacterial cultures of 1 L of medium were prepared by inoculating 50 mL of the pre-culture and incubating at 37° C., 230 rpm until reaching an OD (600 nm) of 0.6 to 0.8. Expression of fusion proteins was then induced by adding 1 mM isopropyl-1-thio-D-galactopyranoside (IPTG) for 3 hours at 37° C. Cells were collected by centrifugation and stored at −20° C. […] Chromatography fractions were analyzed by SDS-PAGE, and the ones containing pure proteins were concentrated and protein concentration was determined in the Nanodrop (Thermo Scientific) by absorption at 280 nm.
(§6) Samples and blank control (only buffer) (110 μL) were dispensed in each well of a Black/Clear flat bottom 96-well plate (Corning), which was sealed and incubated at 37° C. with agitation in a FLUOstar Omega (BMG Labtech Inc) plate reader. Fluorescence of three replicates of each sample was measured every 10 min for up to 5 days. The […] wavelengths of the filter were 440 nm and 490 nm, respectively, and readings were taken using 90% gain adjustment. Values for protein solutions were normalized to readings of blank buffer.

A further test concerns ATXN3Q55. The description is as above. It is filed as biochemical, human. The settings on record: ATXN3Q55 10 μM, compound 400 μM. On the procedure:
as §5, §6

As to `O=C1CCc2ccc(OCCCCN3CCN(c4cccc(Cl)c4Cl)CC3)cc2N1` [aripiprazole], the “levels of human mutant ATXN3Q84” value in the test with human mutant ATXN3Q84 is given as “reduced levels”. Also, the “levels of mouse Atxn3” value in the test on mouse Atxn3 is reported as “reduced levels”. Also, the “levels of endogenous mouse Atxn3” value in the test on endogenous mouse Atxn3 was “trend toward decreased levels”. Further, the “HMW ATXN3 species, of levels in vehicle-treated mice” value in the test with human ATXN3 (brainstem, Q84 mice) amounted to 44%. Moreover, the “levels of monomeric human ATXN3” value in the test with human ATXN3 (soluble lysates) is listed as “trend toward decreased levels”. Further, the “fibril formation by normal ATXN3Q26” value in the test with ATXN3Q26 was “did not interfere with fibril formation”. The “kinetics of ATXN3Q55 fibril formation in the presence or absence of compound” value in the test on ATXN3Q55 is “identical”.
